Experimental data as given in patent US10106542B2, “Substituted 6,7-dihydropyrazolo[1,5-a]pyrazines as negative allosteric modulators of mGluR2 receptors” (Janssen Pharmaceutica NV, priority 2013, dated 2018).

How the values were obtained:
human mGlu2 receptor = molecular target: T1, human mGlu2 receptor (Homo sapiens, UniProt Q14416); test: [35S]GTPγS binding assay (mGluR2 negative allosteric modulation); assay type: biochemical; details: for IC50: membranes from CHO cells transfected with human mGlu2 receptor, glutamate 60 μM, pIC50 = −log IC50 (M), read-out: GTPγS - hmGluR2 anGT pIC50 (converted); for Emax: relative maximal effect: maximal % inhibition relative to the control glutamate response, read-out: GTPγS - hmGluR2 anGT Emax
T1 construct: expressed in transfected cells; host or cells: CHO cells (membrane preparation)
T1 sequence (Q14416 19-872): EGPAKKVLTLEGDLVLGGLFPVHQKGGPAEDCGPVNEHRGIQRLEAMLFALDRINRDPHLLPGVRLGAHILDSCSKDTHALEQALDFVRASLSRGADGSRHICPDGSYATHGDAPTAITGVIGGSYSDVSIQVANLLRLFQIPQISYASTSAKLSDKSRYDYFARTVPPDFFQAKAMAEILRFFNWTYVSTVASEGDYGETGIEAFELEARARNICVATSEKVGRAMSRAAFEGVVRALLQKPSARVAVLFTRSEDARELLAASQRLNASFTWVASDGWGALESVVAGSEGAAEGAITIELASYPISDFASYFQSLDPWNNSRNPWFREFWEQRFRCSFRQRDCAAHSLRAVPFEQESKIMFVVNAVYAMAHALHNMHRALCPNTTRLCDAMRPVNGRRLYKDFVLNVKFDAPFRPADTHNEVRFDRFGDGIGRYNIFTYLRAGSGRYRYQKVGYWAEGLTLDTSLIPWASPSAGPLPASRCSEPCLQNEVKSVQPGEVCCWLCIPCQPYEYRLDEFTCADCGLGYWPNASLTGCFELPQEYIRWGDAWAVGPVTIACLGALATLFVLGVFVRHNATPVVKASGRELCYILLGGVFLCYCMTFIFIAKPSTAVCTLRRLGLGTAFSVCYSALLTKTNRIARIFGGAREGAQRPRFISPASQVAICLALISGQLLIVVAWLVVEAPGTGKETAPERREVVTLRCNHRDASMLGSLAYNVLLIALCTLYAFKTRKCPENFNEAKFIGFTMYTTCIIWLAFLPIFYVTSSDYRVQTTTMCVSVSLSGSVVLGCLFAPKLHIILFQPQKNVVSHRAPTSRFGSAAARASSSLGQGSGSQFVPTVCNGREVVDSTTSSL
Outline: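 Negative allosteric modulation read as [35S]GTPγS (0.1 nM) incorporation over 30 min at 30 °C, expressed as % of the response to an EC80-equivalent glutamate concentration. Assay used 7 μg human mGlu2 CHO membrane protein in HEPES pH 7.4 buffer with NaCl, MgCl2, GDP and saponin; bound label collected by filtration.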

rats = test: Reversal of the effect of the mGluR2 PAM JNJ-42153605 on scopolamine-induced hyperlocomotion; assay type: in vivo; details: Rattus norvegicus, 1 h, test compound 60 min before recording, criterion total distance >1500 cm
Experimental: 2) Reversal of the Effect of the mGluR2 PAM JNJ-42153605 on Scopolamine-Induced Hyperlocomotion Apparatus
Motor activity was measured in microprocessor-based motor activity arenas (closed gray PVC cylinders with a height of 39 cm and a diameter of 31 cm). Each arena was placed on an infrared LED (8×8 LEDs) lit box (white PVC squared box; 40×40 cm^2; height 12.5 cm. An infrared-sensitive tube camera and a white light source were mounted to the ceiling above the observation chamber to track the animal. The total distance traveled (cm) was recorded and analyzed using the Noldus Ethovision XT Video Tracking System (Version 7.0.418; Noldus, Wageningen, The Netherlands). The intensity of the light within the activity cages (measured in the centre at the level of the floor) ranged between 4 and 8 LUX.
The rats were pretreated with test compound or vehicle at 60 min before the start of the activity recordings and placed into individual cages. The rats were challenged with JNJ-42153605 (3-(cyclopropylmethyl)-7-(4-phenylpiperidin-1-yl)-8-(trifluoromethyl)[1,2,4]triazolo[4,3-a]pyridine; WO2010/130424; Cid et al. J. Med. Chem. 2012, 55, 8770-8789) (20 mg/kg, i.v.) 30 min before the start of the activity recording combined with scopolamine (0.16 mg/kg, i.v.) just before the start of the activity measurements Immediately after the injection of scopolamine, the rats were placed into the activity monitors and total distance travelled over the first 30 min was measured.
Animals receiving the combination of JNJ-42153605 and scopolamine (n=433) almost always travelled a distance of less than 1500 cm (<1500 cm) (only 2.5% of the control rats travelled a distance of more than 1500 cm (>1500 cm)). On the other hand, animals challenged with scopolamine alone (n=215) always travelled a total distance of more than 1500 cm (>1500 cm) and almost always (in 95.8% of the rats) a distance of more than 4400 cm (>4400 cm). […] For reversal of the inhibitory effect of JNJ-42153605 on the scopolamine-induced hyperlocomotion, two all-or-none criteria were adopted: (1) reversal: total distance >1500 cm; (2) normalization: total distance >4400 cm.

Wiga rats = test: Reserpine interaction test in rats; assay type: in vivo, rat; details: for ED50: Rattus norvegicus, po, Time 60, reserpine 10 mg/kg SC, Wiga rats, read-out: ED50, reversal of reserpine-induced ptosis
Experimental: 4) Reserpine Interaction Test in Rats
It was investigated to what extent the mydriatic action of test compounds was sufficient to counteract the miosis induced by the monoamines-depleting agent reserpine (10 mg/kg; SC) in Wiga rats.
The effects are illustrated in FIG. 3. […] The reference mGlu2 NAMs RO-4995819 (40 mg/kg, p.o.), RO-4491533 (40 mg/kg, p.o.; 10 mg/kg, s.c.) and [CAS 579473-69-1]

Male Wiga Wistar rats = test: Reversal of LY-404039-induced decrease of palpebral opening in apomorphine-challenged rats; assay type: in vivo; details: Rattus norvegicus, reversal of LY-404039-induced decrease of palpebral opening (cumulative score >26) in apomorphine challenged rats
Experimental: 6) Reversal of LY-404039-Induced Decrease of Palpebral Opening in Apomorphine-Challenged Rats.
Male Wiga Wistar rats (Crl:WI; Charles River Germany; 220±40 g) were housed under standard laboratory conditions (21±2° C.; 50-65% relative humidity; light-dark cycle set at 12 h; lights on at 6.00 h) and fasted overnight prior to the start of the experiments (tap water remained available ad libitum). During the test period, they were housed in individual cages. The local Ethical Committee approved all studies in compliance with the Declaration of Helsinki. Palpebral opening was scored every 5 min over the first hour after injection of apomorphine (1.0 mg/kg, i.v.) in animals either pretreated or not pretreated with LY-404039 (2.5 mg/kg, s.c.) at 1 h prior to the apomorphine injection. The animals were also pretreated with test compound or solvent at a predefined interval before apomorphine challenge. The score system was: (5) exophthalmos, (4) wide open, (3) open for three-quarters, (2) half open, (1) open for one-quarter, (0) closed. The scores for palpebral opening were cumulated over the 60-min observation period. A cumulative palpebral opening score >26 was selected for drug-induced reversal of the LY-404039-induced decrease of palpebral opening (occurrence in 3.2% of control animals pretreated with LY-404039 (n=154) versus in 99.5% of control rats not pretreated with LY-404039 (n=6335)).
In animals receiving apomorphine alone the median palpebral opening is 43 whereas in animals receiving apomorphine and LY-404039, the median palpebral opening is 17.

IC50 (human mGlu2 receptor) [M]	Emax (human mGlu2 receptor) [%]	melting point [°C]	SMILES	ED50 (rats; Route PO) [mg/kg]	ED50 (Wiga rats) [mg/kg]	other results
5.89e-09	105	122.3	CCOc1nc(N2C[C@H](C)n3ncc(-c4ccnc(C)c4)c3C2=O)ccc1C(F)(F)F (single isomer, unassigned) [compound 200]	3.15	0.13	
8.32e-07	100	128.2	Cc1ccc(-c2cnn3c2C(=O)N(c2ccc(C(F)(F)F)cc2)C[C@@H]3C)cn1 [compound 36]		5	
1.48e-06	105	137	Cc1cc(-c2cnn3c2C(=O)N(c2ccc(C(F)(F)F)cc2)CC3)ccn1 [compound 40]		0.32	
6.92e-08	104		COCc1cc(-c2cnn3c2C(=O)N(c2ccc(C(F)(F)F)cc2)C[C@@H]3C)ccn1 [compound 22]		0.13	
5.37e-07	103		CCOc1ccc(N2C[C@H](C)n3ncc(-c4ccnc(C)c4)c3C2=O)cc1.Cl [compound 81, (7S)-5-(4-Ethoxyphenyl)-7-methyl-3-(2-methyl-4-pyridyl)-6,7-dihydropyrazolo[1,5-a]pyrazin-4-one hydrochloride salt]		5	
5.62e-06	100	149.7	Cc1cc(-c2cnn3c2C(=O)N(c2cccc(C(C)O)c2)C[C@@H]3C)ccn1 (some centres unmarked) [compound 148]		1.99	
7.59e-07	105		Cc1cc(-c2cnn3c2C(=O)N(c2ccc(Cl)cc2Cl)C[C@@H]3C)ccn1 [compound 167]			ED50 (Male Wiga Wistar rats; Route PO): > 40 mg/kg
3.55e-06	95	166.9	COc1ccc(N2C[C@H](C)n3ncc(-c4ccnc(C)c4)c3C2=O)cc1OC [compound 41]		3.15	
8.32e-09	105	119.7	CCOc1nc(N2C[C@H](C)n3ncc(-c4ccnc(C)c4)c3C2=O)ccc1Cl [compound 201]	> 2.5		
			Cc1ccc(N2C[C@H](C)n3ncc(-c4ccnc(C)c4)c3C2=O)cc1 [compound 78]		≥ 10	
7.94e-07	104		CCOc1cccc(N2C[C@H](C)n3ncc(-c4ccnc(C)c4)c3C2=O)c1 [compound 83]		5	
			Cc1cc(-c2cnn3c2C(=O)N(c2ccc(C#N)cc2)C[C@@H]3C)ccn1 [compound 80]		> 2.5	
1.05e-06	105		Cc1cc(-c2cnn3c2C(=O)N(c2ccc(Cl)cc2C)C[C@@H]3C)ccn1 [compound 172]			ED50 (Male Wiga Wistar rats; Route SC): > 40 mg/kg
3.31e-09	104	247	Cc1cc(-c2cnn3c2C(=O)N(c2ccc(S(F)(F)(F)(F)F)cc2)C[C@@H]3C)ccn1 [compound 4]	1.26		
9.55e-07	103		COc1ccc(N2C[C@H](C)n3ncc(-c4ccnc(C)c4)c3C2=O)cc1 [compound 38]		5	
1.32e-08	106	76.8	COc1cc(-c2cnn3c2C(=O)N(c2ccc(C(F)(F)F)c(OC)c2)C[C@@H]3C)ccn1 [compound 180]	≥ 2.5		
2.75e-08	103	155.1	C[C@H]1CN(c2ccc(C(F)(F)F)cc2)C(=O)c2c(-c3ccnc(C#N)c3)cnn21 [compound 127, 4-[(7S)-7-Methyl-4-oxo-5-[4-(trifluoromethyl)phenyl]-6,7-dihydropyrazolo[1,5-a]pyrazin-3-yl]pyridine-2-carbonitrile]	1.99		
1.45e-08	108	126.4	C[C@H]1CN(c2ccc(C(F)(F)F)cc2)C(=O)c2c(-c3ccnc(C(F)(F)F)c3)cnn21 [compound 99]	≥ 2.5		
2.51e-09	102	99.8	C[C@H]1CN(c2ccc(C(F)(F)F)cc2)C(=O)c2c(-c3ccnc(N(C)C)c3)cnn21 [compound 166]	0.5		ED50 (rats; Route SC): ≥ 10 mg/kg
5.13e-07	104		Cc1cc(-c2cnn3c2C(=O)N(c2cccc(OC(C)C)c2)C[C@@H]3C)ccn1 [compound 79]		5	
			Cc1cc(-c2cccc(C3=Nc4cc(C)c(C(F)(F)F)cc4NC(=O)C3)c2)cc(C)n1 [RO-4491533, reference compound]			interactions with reserpine (mydriasis, reversal of ptosis, miosis, sedation) (Wiga rats; 10 mg/kg, s.c.): devoid of these interactions with reserpine; interactions with reserpine (mydriasis, reversal of ptosis, miosis, sedation) (Wiga rats; 40 mg/kg, p.o.): devoid of these interactions with reserpine
2.95e-08	103	128.9	Cc1cc(-c2cnn3c2C(=O)N(c2ccc(C(F)(F)F)c(C#N)c2)C[C@@H]3C)ccn1 [compound 13]	7.94		
6.31e-07	101		Cc1cc(-c2cnn3c2C(=O)N(c2cc(F)cc(F)c2)C[C@@H]3C)ccn1 [compound 82]		5	
			Cc1cncc(-c2cnn3c2C(=O)N(c2ccc(C(F)(F)F)cc2)C[C@@H]3C)c1 [compound 24]		≥ 10	
			Nc1ccc(C#Cc2cnn3c(C(F)(F)F)cc(-c4ccc(C(F)(F)F)cc4)nc23)cn1 [RO-4995819, reference compound]			interactions with reserpine (mydriasis, reversal of ptosis, miosis, sedation) (Wiga rats; 40 mg/kg, p.o.): devoid of these interactions with reserpine
5.62e-07	100	> 300	COc1c(C)cc(N2C[C@H](C)n3ncc(-c4ccnc(C)c4)c3C2=O)cc1C [compound 34]		0.8	
1.05e-08	103	143.6	Cc1cc(-c2cnn3c2C(=O)N(c2ccc(Cl)c(C(F)(F)F)c2)C[C@@H]3C)ccn1 [compound 9]	≥ 2.5		
6.03e-07	100		COc1ccc(N2C[C@H](C)n3ncc(-c4ccnc(C)c4)c3C2=O)cc1F [compound 35]		> 10	
1e-08	105	105.4	Cc1cc(-c2cnn3c2C(=O)N(c2ccc(OC(F)(F)F)cc2)C[C@@H]3C)ccn1 [compound 152]	1.99		
